# Experimental data reported in patent US20150073033A1, “BIOMARKERS FOR CANCER CHARACTERIZATION AND TREATMENT” (Board of Regents, The University of Texas System, priority 2011, published 2015).
# “Also recorded” adds a separate entry of the source.
# Experiments:
# [1] = tested on: PKM2; assay: EGF-induced nuclear translocation of PKM2 (cell fractionation, immunoblotting, immunofluorescence); type: cell-based, human; details: U87/EGFR (and U251) cells; 30 min pretreatment before EGF 100 ng/mL; LY290042 30 μM, SU6656 4 μM, SP600125 25 μM, U0126 20 μM, AG1478 1 μM, cycloheximide 100 μg/mL
# Procedure: Immunoblotting analyses (b, b) were performed with the indicated antibodies. Nuclear PCNA and cytoplasmic tubulin were used as controls. a: The indicated cells were immunostained with an anti-PKM2 antibody.
# Immunoblotting and immunoprecipitation analyses were performed with the indicated antibodies. a: Nuclear fractions were prepared from U87/EGFR cells pretreated with LY290042 (30 μM), SU6656 (4 μM), SP600125 (25 μM), and U0126 (20 μM) for 30 min before EGF (100 ng/mL) for 6 h. Nuclear PCNA and cytoplasmic tubulin were used as controls. b: U87/EGFR cells were pretreated with or without U0126 (20 μM) for 30 min before EGF (100 ng/mL) for 6 h. Immunofluorescence analyses were performed with the indicated antibodies. Nuclei were stained with Hoechst 33342 (blue). c: U251 cells were stably transfected with a vector with or without expressing FLAG-ERK2 K52R (left panel) or transiently transfected with vectors expressing MEK1 Q56P and indicated FLAG-tagged ERK2 proteins (right panel). The cells were treated with or without EGF (100 ng/mL) for 6 h, and the total cell lysates and nuclear fractions were prepared. d: FLAG-PKM2 or FLAG-PKM1 was immunoprecipitated with an anti-FLAG antibody from U87/EGFR cells treated with or without EGF (100 ng/mL) for 30 min. e: Bacterially-purified GST-ERK2 immobilized on glutathione agarose beads was mixed with or without purified His-PKM2. GST pull-down analyses were performed. Ten percent of total His-PKM2 was used as an input. f: U87/EGFR cells transfected with vectors expressing the indicated FLAG-tagged ERK proteins were treated with or without EGF (100 ng/mL) for 30 min. g: U87/EGFR cells expressing the indicated FLAG-PKM2 proteins were treated with or without EGF (100 ng/mL) for 30 min.
# (§1) Immunofluorescence analyses of endogenous PKM2 or transiently expressed FLAG-PKM1 were performed with the indicated antibodies. […] Immunoblotting analyses were performed with the indicated antibodies. Nuclear PCNA was used as controls for immunoblotting analyses. c: An equal volume of cytosolic and nuclear fractions were prepared from U87/EGFR cells treated with or without EGF (100 ng/mL) for 6 h. Ten microliters of protein from cytosolic and nuclear fractions were used for immunoblotting analyses with the indicated antibodies. d: Nuclear fractions were prepared from U251 cells pretreated with LY290042 (30 μM), SU6656 (4 μM), SP600125 (25 μM), and U0126 (20 μM) for 30 min before EGF (100 ng/mL) for 6 h. Immunoblotting analyses were performed with the indicated antibodies. Nuclear PCNA and cytoplasmic tubulin were used as controls. e: U87/EGFR cells were pretreated with LY290042 (30 μM), SU6656 (4 μM), SP600125 (25 μM), and U0126 (20 μM) for 30 min before EGF (100 ng/mL) for 6 h. Immunoblotting analyses were performed with the indicated antibodies.
# Cytosolic and nuclear fractions were prepared. Immunoblotting analyses were performed with the indicated antibodies. b: U87/EGFR cells with depleted endogenous PKM2 and reconstituted expression of RNAi-resistant WT rPKM2 or rPKM2 S37A were treated with or without EGF (100 ng/mL) for 6 h. Total cell lysates (left panel) and nuclear fractions (right panel) were prepared.
# [2] = tested on: PKM2 expression; assay: EGF-induced PKM2 upregulation, immunoblotting; type: cell-based, human; details: U87/EGFR cells; pretreatment before EGF 100 ng/mL 12 h; AG1478 1 μM, cycloheximide 200 μg/mL, Bis-I 2 μM, Go6976 2 μM, NF-κB activation inhibitor II 7 μM, AKT inhibitor 10 μM, TBB 50 μM, U73122 2 μM
# Procedure: FIG. 56: EGFR activation results in upregulation of PKM2 expression. A-D: Immunoblotting analyses were performed with or without the indicated antibodies. A: The indicated cell lines were treated with EGF (100 ng/mL) for 12 h. B: U87 cells were stably transfected with plasmids expressing EGFR or EGFRvIII. […] D: U87/EGFR cells were pretreated with or without cycloheximide (CHX) (200 μg/mL) for 30 min before EGF (100 ng/mL) treatment for 12 h. […] The relative mRNA levels of PKM2 and PKM1 were normalized to the levels of untreated cells and β-actin mRNA. Data represent the mean±SD of three independent experiments.
# FIG. 57: EGF increases PKM2 expression in a PKC- and NF-κB-dependent manner. A-D, H: Immunoblotting analyses were performed with the indicated antibodies. […] ChIP assay was performed with an anti-RelA antibody for immunoprecipitation, followed by PCR with PKM promoter-specific primers. F: An oligonucleotide containing the putative WT or mutated NF-κB binding sequence was labeled using [γ-^32P] ATP and T4 polynucleotide kinase. […] Samples were subjected to 5% polyacrylamide gel electrophoresis, and the dried gel was exposed to x-ray film. […] The relative levels of luciferase activity were normalized to the levels of untreated cells and to the levels of luciferase activity of the Renilla control plasmid. Data represent the mean±standard deviation of three independent experiments.
# FIG. 58: PKCε downstream from PLCγ1, rather than TAK1, activates IKKβ and subsequently increases PKM2 expression. […] B: U87/EGFR cells were treated with TNFα (10 ng/mL) for the indicated time. C: U87/EGFR cells were treated with or without EGF (100 ng/mL) or TNFα (10 ng/mL) for 4 h. […] HIF1α was immunodepleted from the cell lysates by incubation with an anti-HIF1α antibody, which was followed by a ChIP assay with an anti-FLAG antibody for immunoprecipitation of FLAG-RelA and PCR analysis with PKM promoter-specific primers. […] F: 293T cells were transiently transfected with constitutively active (+) or kinase-dead (−) PKC mutants. […] H, I: 293T cells were transiently transfected with the indicated plasmids.
# [3] = tested on: ERK1/2; assay: EGF-induced ERK1/2 phosphorylation, immunoblotting; type: cell-based, human; details: U87/EGFR cells; AG1478 1 μM or U0126 20 μM 30 min before EGF 6 h
# Procedure: as §1
# (§2) Extraction of proteins with a modified buffer from cultured cells was followed by immunoprecipitation and immunoblotting with corresponding antibodies, as described previously (Lu et al., 1998).
# [4] = molecular target: T1, IKKβ (Homo sapiens, UniProt O14920); details: small molecules IKKβ inhibitors; values from the cited references; read-out: IC50 (half maximal inhibitory concentration); cited from earlier work
# T1 sequence (O14920 1-756): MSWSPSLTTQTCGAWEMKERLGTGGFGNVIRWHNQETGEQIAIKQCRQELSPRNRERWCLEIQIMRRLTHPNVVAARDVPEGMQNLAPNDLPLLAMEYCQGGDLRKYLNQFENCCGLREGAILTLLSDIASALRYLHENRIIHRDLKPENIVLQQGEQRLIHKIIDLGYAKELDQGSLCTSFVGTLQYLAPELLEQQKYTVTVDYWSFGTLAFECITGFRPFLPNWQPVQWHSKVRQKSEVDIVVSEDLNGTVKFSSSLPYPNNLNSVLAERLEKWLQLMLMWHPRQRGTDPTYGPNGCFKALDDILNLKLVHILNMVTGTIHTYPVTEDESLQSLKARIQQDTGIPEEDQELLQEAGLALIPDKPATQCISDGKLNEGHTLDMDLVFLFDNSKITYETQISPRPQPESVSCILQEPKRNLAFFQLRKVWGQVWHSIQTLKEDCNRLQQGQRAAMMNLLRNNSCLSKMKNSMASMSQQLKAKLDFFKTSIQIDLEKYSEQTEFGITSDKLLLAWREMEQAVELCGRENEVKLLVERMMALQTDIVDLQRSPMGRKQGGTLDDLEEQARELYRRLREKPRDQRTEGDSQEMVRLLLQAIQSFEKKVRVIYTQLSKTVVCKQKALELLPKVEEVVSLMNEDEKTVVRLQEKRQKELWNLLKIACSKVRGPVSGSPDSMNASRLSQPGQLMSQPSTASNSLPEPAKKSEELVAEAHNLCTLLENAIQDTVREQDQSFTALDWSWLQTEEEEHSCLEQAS
# [5] = tested on: PKM2-β-catenin interaction; assay: EGF-induced association of β-catenin with PKM2 in primary GBM cells (co-IP); type: cell-based; details: GSC11 and GSC23 human primary GBM cells; SU6656 4 μM 30 min before EGF 100 ng/mL 6 h
# Source text: (§3) FIG. 16: EGF induces the nuclear translocation of PKM2, c-Src-dependent […] Y333 phosphorylation, and a c-Src-dependent interaction between PKM2 and β-catenin in primary GBM cells. […] Nuclear PCNA and cytoplasmic tubulin were used as controls.
# [6] = molecular target: c-Src (Homo sapiens, UniProt P12931); assay: EGF-induced c-Src activation (Y418 phosphorylation), immunoblotting; type: cell-based; details: U87/EGFR cells; SU6656 4 μM 30 min before EGF 100 ng/mL 6 h
# c-Src, sequence (P12931 whole entry): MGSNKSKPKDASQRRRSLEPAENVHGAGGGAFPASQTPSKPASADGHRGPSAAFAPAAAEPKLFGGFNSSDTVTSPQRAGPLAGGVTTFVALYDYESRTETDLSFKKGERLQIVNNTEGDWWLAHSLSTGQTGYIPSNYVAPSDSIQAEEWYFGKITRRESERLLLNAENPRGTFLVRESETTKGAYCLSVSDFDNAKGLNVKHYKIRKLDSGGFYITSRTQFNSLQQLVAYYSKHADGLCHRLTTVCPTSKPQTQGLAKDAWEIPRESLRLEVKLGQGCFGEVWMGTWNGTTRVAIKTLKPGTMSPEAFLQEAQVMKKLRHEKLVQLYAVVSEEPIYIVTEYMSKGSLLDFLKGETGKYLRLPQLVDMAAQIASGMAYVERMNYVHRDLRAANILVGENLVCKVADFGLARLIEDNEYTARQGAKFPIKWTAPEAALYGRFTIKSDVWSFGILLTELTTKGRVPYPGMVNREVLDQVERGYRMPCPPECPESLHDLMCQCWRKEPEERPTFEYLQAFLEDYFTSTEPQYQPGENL
# Procedure: as §1, §2
# [7] = tested on: β-catenin; assay: EGF-induced β-catenin Tyr/Y333 phosphorylation, immunoprecipitation and immunoblotting; type: cell-based, human
# Procedure: FIG. 2: c-Src phosphorylates β-catenin at Y333 upon EGFR activation. a: U87/EGFR cells were treated with SU6656 (4 μM) or an Abl inhibitor (0.2 μM) for 30 min before EGF treatment for 6 h. b: The indicated cells were treated with or without EGF for 6 h. c: β-catenin was immunoprecipitated from the nuclear fractions of U87/EGFR cells treated with or without EGF for 6 h. d, g: U87/EGFR cells transiently expressing the indicated FLAG-tagged β-catenin proteins were treated with or without EGF for 6 h. e: In vitro kinase assays were performed with purified active c-Src and purified β-catenin proteins. f: Immobilized GST-β-catenin proteins were mixed with purified His-PKM2 proteins in the presence or absence of active c-Src.
# as §3
# [8] = tested on: U87/EGFRvIII cells; assay: Intracranial U87/EGFRvIII xenograft, intratumoral SU6656; type: in vivo, athymic nude mice
# Procedure: FIG. 19: c-Src inhibition suppresses tumorigenesis and reduces β-catenin Y333 phosphorylation and cyclin D1 expression in tumor tissues. a: U87/EGFRvIII (5×10^5) cells were intracranially injected into athymic nude mice. After 5 d, seven mice were sacrificed to examine tumor growth; the remaining mice, whose tumors were intracranially injected with SU6656 (0.015 mg/kg in 5 μL of DMSO) or DMSO every three days, were sacrificed at day 15. […] C: Immunoblotting analyses of the indicated tumor tissues were performed with the indicated antibodies.
# GBM cells (5×10^5) were intracranially injected (in 5 μL of DMEM per mouse), with or without regulation of β-catenin or PKM2 expression, into 4-week-old female athymic nude mice. The intracranial injections were performed, as described in a previous publication (Gomez-Manzano et al., 2006). Seven mice per group in each experiment were included. Animals injected with U87/EGFRvIII or GSC 11 cells were sacrificed 2 weeks or 30 days after glioma cell injection, respectively. The brain of each mouse was harvested, fixed in 4% formaldehyde, and embedded in paraffin. Tumor formation and phenotype were determined by histologic analysis of H & E-stained sections.
# For doxycycline induction studies, seven mice were sacrificed 14 days after GBM cell injection to examine tumor growth, whereas the remaining 14 mice in two groups were fed with or without water containing 800 μg/mL doxycycline. The water containing doxycycline was changed every three days. The mice in these two groups were sacrificed at day 30. For the SU6656 treatment studies, seven mice were sacrificed five days after U87/EGFRvIII cell injection to examine tumor growth, whereas the remaining 14 mice in two groups were treated with either DMSO or SU6656. SU6656 (0.015 mg/kg in 5 μL of DMSO) was intracranially injected into the tumor every three days, and the mice in both groups were sacrificed at day 14 after GBM cell injection.
# [9] = SU6656 0.015 mg/kg intratumoral every three days
structure (smiles),measurement,setting,value
C[C@@H]1C[C@@H]([C@H](O)CC2CC(=O)NC(=O)C2)C(=O)[C@@H](C)C1 [cycloheximide],EGF-induced nuclear accumulation/translocation of PKM2,[1],did not inhibit
same,EGF-induced PKM2 upregulation/expression,[2],inhibited
COc1cc2ncnc(Nc3cccc(Cl)c3)c2cc1OC [AG1478],EGF-induced nuclear accumulation/translocation of PKM2,[1],abrogated
same,EGF-induced phosphorylation of ERK1/2,[3],blocked
same,EGF-induced PKM2 upregulation/expression,[2],blocked; also recorded: abrogated
C[C@]1(CO)CN(c2cc(C(=O)Nc3ccc4c(c3)-c3c(c(C(N)=O)nn3-c3ccc(F)cc3)CC4)c(Cl)cn2)C[C@@]1(C)CO [PF-184],IC50,[4],0.037 µM
CN(C)S(=O)(=O)c1ccc2c(c1)/C(=C/c1cc3c([nH]1)CCCC3)C(=O)N2 [SU6656],EGF-induced association of β-catenin with PKM2,[5],blocked
same,EGF-induced nuclear accumulation/translocation of PKM2,[1],only inhibition of MEK/ERK abrogated
same,EGF-induced activation/phosphorylation of c-Src (Y418),[6],completely abrogated; also recorded: blocked
same,EGF-induced phosphorylation of β-catenin Y333,"[7]; GSC11 and GSC23 human primary GBM cells, SU6656 4 μM 30 min before EGF 100 ng/mL 6 h",blocked
same,EGF-induced Tyr phosphorylation of β-catenin,"[7]; U87/EGFR cells, SU6656 4 μM or Abl inhibitor 0.2 μM 30 min before EGF 6 h",blocked
same,tumor growth,[8]; SU6656 0.015 mg/kg in 5 μL DMSO intratumoral every three days vs DMSO,significantly blocked tumor growth
same,cyclin D1 expression in tumor tissue,[8]; [9],inhibited
same,phosphorylation level of c-Src Y418 in tumor tissue,[8]; [9],reduced
same,phosphorylation level of β-catenin Y333 in tumor tissue,[8]; [9],reduced
O=C(Nc1cc(C(F)(F)F)cc(C(F)(F)F)c1)c1cc(Cl)ccc1O [IMD-0354],IC50,[4],0.28 to 3 µM
O=C(N/N=C/c1ccc([N+](=O)[O-])cc1)c1ccc2ccccc2c1 [LASSBio-1524],IC50,[4],20 µM
Cc1cc(N)ccc1N=Nc1ccc(S(=O)(=O)CCOS(=O)(=O)O)cc1 [NSC 676914],IC50,[4],17 µM
O=C(Nc1cc(Cl)cc2c1[nH]c1cnccc12)c1cccnc1 [PS1145],IC50,[4],0.088 µM
